Measured values published in the supplement of paper PMC10307832.

Key:
Test in all cases: relative viability (nuclei count vs DMSO), 5 days (fraction); higher = more cells survive
[1] = compound: COC1=C(C=C(C=C1)C2=CC3=NC=CN3C(=N2)NC4=C(C=CC=N4)C(=O)N)OC [BAY61-3606] + O=C(c1cc(Cc2n[nH]c(=O)c3ccccc23)ccc1F)N1CCN(C(=O)C2CC2)CC1 [Olaparib] (partner 8 µM)
Summary of the method: (§1)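 Medians of duplicate plates are given as relative viability. That measure is the nuclei count in treated wells divided by the count in vehicle wells. Counts were taken on 4× images of lung cancer cell lines in 1536-well plates, 5 days after pin-tool dosing the day after seeding with one drug alone or a fixed anchor-drug dose plus five library-drug doses (not always all listed) in √10 steps.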

[2] = compound: COC1=C(C=C(C=C1)C2=CC3=NC=CN3C(=N2)NC4=C(C=CC=N4)C(=O)N)OC [BAY61-3606] + CC(C)C[C@H](NC(=O)[C@H](Cc1ccccc1)NC(=O)c1cnccn1)B(O)O [Bortezomib] (partner 0.002 µM)
Summary of the method: as §1

[3] = compound: COc1cccc2c1C(=O)c1c(O)c3c(c(O)c1C2=O)C[C@@](O)(C(=O)CO)C[C@@H]3O[C@H]1C[C@H](N)[C@H](O)[C@H](C)O1 [Doxorubicin] + Cc1nc(Nc2ncc(C(=O)Nc3c(C)cccc3Cl)s2)cc(N2CCN(CCO)CC2)n1 [Dasatinib] (partner 0.075 µM)
Summary of the method: as §1

[4] = compound: COC1=C(C=C(C=C1)C2=CC3=NC=CN3C(=N2)NC4=C(C=CC=N4)C(=O)N)OC [BAY61-3606] + CS(=O)(=O)N1CCN(Cc2cc3nc(-c4cccc5[nH]ncc45)nc(N4CCOCC4)c3s2)CC1 [Pictilisib] (partner 1 µM)
Summary of the method: as §1

Cell Line | relative viability ([1]; first compound 0.02 µM) | relative viability ([1]; first compound 0.06325 µM) | relative viability ([1]; first compound 0.2 µM) | relative viability ([1]; first compound 0.6325 µM) | relative viability ([1]; first compound 2 µM) | relative viability ([2]; first compound 0.02 µM) | relative viability ([2]; first compound 0.06325 µM) | relative viability ([2]; first compound 0.2 µM) | relative viability ([2]; first compound 0.6325 µM) | relative viability ([2]; first compound 2 µM) | relative viability ([3]; first compound 0.001 µM) | relative viability ([3]; first compound 0.003162 µM) | relative viability ([3]; first compound 0.01 µM) | relative viability ([3]; first compound 0.03162 µM) | relative viability ([3]; first compound 0.1 µM) | relative viability ([4]; first compound 0.02 µM) | relative viability ([4]; first compound 0.06325 µM) | relative viability ([4]; first compound 0.2 µM) | relative viability ([4]; first compound 0.6325 µM) | relative viability ([4]; first compound 2 µM)
NCI-H1651 | 0.195 | 0.198 | 0.184 | 0.182 | 0.145 | 1.03 | 0.99 | 0.911 | 0.941 | 0.952 | 0.334 | 0.39 | 0.246 | 0.154 | 0.102 | 0.628 | 0.689 | 0.623 | 0.531 | 0.401
NCI-H2126 | 0.92 | 0.985 | 0.865 | 0.909 | 0.833 | 1.11 | 1.13 | 1.08 | 1.08 | 1.07 | 0.619 | 0.556 | 0.55 | 0.232 | 0.224 | 0.543 | 0.503 | 0.492 | 0.51 | 0.447
RERF-LC-KJ | 0.878 | 0.899 | 1.07 | 0.872 | 0.779 | 1.2 | 1.13 | 1.06 | 1.17 | 0.85 | 0.85 | 0.83 | 0.706 | 0.318 | 0.278 | 0.532 | 0.411 | 0.59 | 0.577 | 0.441
LXF-289 | 1.05 | 1.1 | 0.96 | 1.04 | 0.963 | 0.985 | 1.03 | 0.992 | 1.04 | 0.99 | 0.224 | 0.293 | 0.241 | 0.238 | 0.281 | 0.846 | 0.83 | 0.782 | 0.805 | 0.84
NCI-H838 | 0.802 | 0.847 | 0.751 | 0.729 | 0.571 | 0.954 | 0.738 | 0.748 | 0.822 | 0.501 | 0.292 | 0.284 | 0.228 | 0.307 | 0.277 | 0.568 | 0.432 | 0.601 | 0.523 | 0.324
HCC-827 | 0.648 | 0.737 | 0.67 | 0.606 | 0.624 | 1.03 | 1.07 | 1.01 | 1.02 | 1.1 | 0.3 | 0.335 | 0.29 | 0.304 | 0.365 | 1.03 | 0.893 | 1.15 | 1.09 | 0.915
NCI-H1792 | 0.66 | 0.463 | 0.294 | 0.286 | 0.282 | 0.967 | 0.987 | 0.879 | 0.943 | 0.976 | – | 0.901 | 0.741 | 0.769 | 0.706 | 0.293 | 0.176 | 0.328 | 0.363 | 0.303
NCI-H460 | 0.501 | 0.464 | 0.393 | 0.444 | 0.457 | 1.12 | 1.12 | 1.05 | 0.92 | 0.548 | 0.507 | 0.427 | 0.405 | 0.171 | 0.0701 | 0.433 | 0.353 | 0.319 | 0.35 | 0.377
NCI-H3122 | 0.607 | 0.652 | 0.676 | 0.636 | 0.57 | 0.947 | 1.02 | 1.05 | 0.988 | 1 | 0.684 | 0.837 | 0.735 | 0.291 | 0.928 | 0.621 | 0.632 | 0.568 | 0.59 | 0.619
NCI-H2347 | 0.575 | 0.629 | 0.603 | 0.597 | 0.559 | 1.09 | 0.815 | 0.971 | 0.869 | 1.01 | 0.271 | 0.322 | 0.327 | 0.283 | 0.307 | 0.715 | 0.495 | 0.801 | 0.746 | 0.892
NCI-H1650 | 0.86 | 0.924 | 0.768 | 0.806 | 0.674 | 0.24 | 0.201 | 0.183 | 0.356 | 0.201 | 0.37 | 0.321 | 0.301 | 0.149 | 0.11 | 0.728 | 0.493 | 0.68 | 0.564 | 0.402
EKVX | 0.99 | 0.999 | 0.798 | 0.91 | 0.782 | 1.12 | 1.09 | 1.03 | 1.16 | 1.06 | 0.581 | 0.504 | 0.601 | 0.539 | 0.501 | 0.415 | 0.404 | 0.407 | 0.411 | 0.388
NCI-H1355 | 0.778 | 0.713 | 0.708 | 0.762 | 0.641 | 1.19 | 1.07 | 1.17 | 1.27 | 1.21 | 0.723 | 0.789 | 0.722 | 0.706 | 0.764 | 0.508 | 0.378 | 0.389 | 0.374 | 0.302
NCI-H2228 | 0.879 | 0.73 | 0.889 | 0.693 | 0.412 | 1.32 | 1.17 | 0.916 | 1.22 | 0.567 | 0.45 | 0.598 | 0.483 | 0.229 | 0.112 | 0.432 | 0.34 | 0.421 | 0.505 | 0.341
NCI-H596 | 0.74 | 0.75 | 0.722 | 0.925 | 0.544 | 0.99 | 1.08 | 1.17 | 1.48 | 1.1 | 0.663 | 0.621 | 0.681 | 0.506 | 0.579 | 0.41 | 0.387 | 0.386 | 0.416 | 0.408
EPLC-272H | 0.962 | 0.722 | 0.706 | 0.709 | 0.323 | 1.01 | 0.931 | 0.915 | 0.958 | 0.951 | 0.41 | 0.418 | 0.371 | 0.417 | 0.343 | 0.442 | 0.373 | 0.264 | 0.25 | 0.248
HCC-366 | 0.406 | 0.436 | 0.365 | 0.324 | 0.235 | 1.04 | 1.16 | 1.1 | 0.998 | 0.964 | – | 0.757 | 0.614 | 0.238 | 0.212 | 0.188 | 0.138 | 0.107 | 0.156 | 0.116
PC-14 | – | 0.284 | 0.212 | 0.235 | 0.204 | 0.829 | 0.883 | 0.801 | 0.949 | 0.728 | 0.28 | 0.184 | 0.22 | 0.0983 | 0.0282 | 0.647 | 0.605 | 0.654 | 0.994 | 0.589
SW 1573 | 0.553 | 0.455 | 0.424 | 0.542 | 0.259 | 1.16 | 1.18 | 0.971 | 1.02 | 0.66 | 0.544 | 0.452 | 0.174 | 0.106 | 0.0634 | 0.476 | 0.44 | 0.464 | 0.514 | 0.367
COR-L 105 | 0.741 | 0.658 | 0.603 | 0.787 | 0.584 | 0.85 | 0.688 | 0.622 | 0.807 | 0.388 | 0.431 | 0.355 | 0.323 | 0.257 | 0.261 | 0.505 | 0.385 | 0.434 | 0.373 | 0.346
NCI-H322M | 0.779 | 0.822 | 0.75 | 0.749 | 0.724 | 1.27 | 1.27 | 1.19 | 1.1 | 1.14 | 0.29 | 0.237 | 0.27 | 0.275 | 0.272 | 0.506 | 0.529 | 0.516 | 0.523 | 0.482
PC-3 [JPC-3] | 1.25 | 1.16 | 1.17 | 1.17 | 1.06 | 0.833 | 0.841 | 0.826 | 0.834 | 0.793 | 1.02 | 0.975 | 0.935 | 0.946 | 0.97 | 0.784 | 0.695 | 0.695 | 0.678 | 0.561
NCI-H1975 | 0.858 | 0.798 | 0.733 | 0.707 | 0.516 | 0.427 | 0.349 | 0.421 | 0.395 | 0.244 | 0.406 | 0.356 | 0.331 | 0.304 | 0.158 | 0.354 | 0.238 | 0.253 | 0.262 | 0.19
CAL-12T | 0.748 | 0.773 | 0.735 | 0.758 | 0.53 | 1.2 | 0.939 | 0.862 | 0.78 | 0.799 | 0.302 | 0.461 | 0.346 | 0.195 | 0.118 | 0.553 | 0.348 | 0.414 | 0.392 | 0.346
SK-LU-1 | 0.599 | 0.458 | 0.646 | 0.429 | 0.355 | 1.38 | 1.15 | 1.12 | 1.21 | 0.961 | 0.158 | 0.193 | 0.166 | 0.124 | 0.116 | 0.628 | 0.498 | 0.662 | 0.515 | 0.428
NCI-H650 | 0.365 | 0.371 | 0.382 | 0.395 | 0.32 | 0.917 | 0.766 | 0.618 | 0.681 | 0.72 | 0.432 | 0.473 | 0.503 | 0.461 | 0.355 | 0.984 | 0.722 | 0.798 | 1.01 | 0.596
NCI-H2023 | 0.515 | 0.623 | 0.481 | 0.496 | 0.257 | 1.1 | 1.08 | 1.09 | 1.24 | 0.735 | 0.672 | 0.588 | 0.431 | 0.173 | 0.0859 | 0.275 | 0.264 | 0.277 | 0.251 | 0.206
